Experimental findings from patent EP3153515A1, “COMPOUNDS FOR INHIBITING HEPATITIS C VIRUS, PHARMACEUTICAL COMPOSITIONS AND USES THEREOF” (priority 2014, dated 2015) are described below.

The subject of the experiment is HCV NS5A replicon GT-1a. The experiment is described as follows: HCV NS5A replicon anti-viral activity (EC50), dual-reporter Renilla luciferase, GT-1a. It is filed as cell-based. The settings on record: Hepatitis C virus, GT1A; GT-1a replicon; read-out: NS5A Inhibitory Activity (EC50 of GT-1a subtype inhibition). From the text: The autonomous replication level of HCV in liver cells in vitro is very low, and the only animal that can be infected by HCV is chimpanzee, therefore there is no appropriate animal model currently available for preclinical pharmacodynamic study. Some researchers have transplanted human liver tissue infected with HCV in vitro into immune deficient mice to establish an in vivo mice model, but these mice are hard to raise and the model is unstable and short of normal immunologic reaction. Moreover, the model has significant difference with the pathogenic process of hepatitis C, therefore, it has not been used for animal model to assess the action of anti-HCV medicine yet. The progress of the development of anti-viral drugs for the treatment of HCV infection had been very slow because the pathogenic mechanism and life cycle of HCV were unclear before 1999 due to the lack of cell culture system for effective multiplication of HCV. But researchers managed to achieve a breakthrough in 1999 after numerous attempts. An effective cell culture model-replicon system in which HCV is capable of autonomous replication in transfected human hepatic carcinoma cell line Huh-7 had been established in that year on the basis of subgenomic HCV RNA built with genetic engineering.
The above-mentioned cell culture model-replicon system which has been widely accepted in the industry is used in this invention for ex vivo experiments and subsequent assessment of drugs based on the experiment results.
The therapeutic effect of the compounds of this invention on HCV infection can be preliminarily assessed through the following preclinical in vitro inhibitory action test and can be further confirmed in clinical trials. Other methods used in the invention are also quite familiar to professionals in this field with ordinary technical knowledge. Method for testing the anti-viral activity(EC50) in HCV NS5A replicon system: • The viral replication level in infected cells was determined by testing Renilla luciferase with the newly established dual-reporter gene replicon system. There was a good linear relation between the expression level of the reporter gene and the HCV RNA replication level and viral protein expression level. The anti-viral activity was determined for 3 replicates in 3 replicate cells at five(5) 1:2 diluted concentration gradients, with 1 to 2 positive controls. The EC50 of the compounds was calculated in the end.
The compounds of the invention, or their stereoisomers, tautomers, esterified or amidated prodrugs, or pharmaceutically acceptable salts and mixtures have been subjected to test to determined their therapeutic effects in the treatment of HCV infection. […] Moreover, the results of 6a-6ep(Ia), 6fa-6gq(Ib) and reference compounds Ref-1(BMS-790052), Ref-2(GS5885), Ref-3 in HCV-NS5 inhibition test reveal that the cyclopentanyl/hexamethyleneamino radical containing linear polypeptide compounds 6a-6ep, 6fa-6gq and reference compounds Ref-1, Ref-2, Ref-3 have good HCV inhibitory results. […] The replicons GT-1a, GT-lb, GT-2a, GT-3a, GT-4a, GT-5a and GT-6a used for the test are routine replicons commercially available in this field. Table 1: HCV NS5A replicon inhibitory activity test results of compounds (6a-6gq) of the invention
On the technique in general: Replicon systems follow genome replication, usually without infectious particles.
As usually defined, the EC50 is the concentration giving half of the maximal effect. As for `COC(=O)N[C@H](C(=O)N1CCC[C@H]1c1nc(-c2ccc(-c3ccc(-c4cnc([C@@H]5C[C@@H](OC(=O)N6Cc7ccc8c(c7C6)OCO8)CN5C(=O)[C@@H](NC(=O)OC)C(C)C)[nH]4)cc3)cc2)c[nH]1)C(C)C` [6a], the EC50 was 1 to 999 pM. Take `COC(=O)N[C@H](C(=O)N1CCCC[C@H]1c1nc(-c2ccc(-c3ccc(-c4c[nH]c([C@@H]5CCCN5C(=O)[C@@H](NC(=O)OC)C(C)C)n4)cc3)cc2)c[nH]1)C(C)C` [6ab]: the EC50 fell in the range of 1 to 999 pM. As for `COC(=O)N[C@H](C(=O)N1CCCC[C@H]1c1nc(-c2ccc(-c3ccc(-c4c[nH]c([C@@H]5C[C@H](OC(=O)N6Cc7cc8c(cc7C6)OCO8)CN5C(=O)[C@@H](NC(=O)OC)C(C)C)n4)cc3)cc2)c[nH]1)C(C)C` [6ac], the EC50 fell in the range of 1 to 999 pM. On to `COC(=O)N[C@H](C(=O)N1CCCC[C@H]1c1nc(-c2ccc(-c3ccc(-c4c[nH]c([C@@H]5COCCN5C(=O)[C@@H](NC(=O)OC)C(C)C)n4)cc3)cc2)c[nH]1)C(C)C` [6aj], for which the EC50 lay in the range of 1 to 999 pM. On to `CC(C)(C)OC(=O)N[C@H](C(=O)N1CC=C[C@H]1c1ncc(-c2ccc(-c3ccc(-c4c[nH]c([C@@H]5CCCN5C(=O)[C@@H](NC(=O)OC(C)(C)C)C(C)(C)C)n4)cc3)cc2)[nH]1)C(C)(C)C` [6bb], for which the EC50 was more than 50000 pM. On to `COC(=O)N[C@H](C(=O)N1CCC[C@H]1c1nc(-c2ccc(-c3ccc(-c4cnc([C@@H]5C=CCN5C(=O)[C@@H](NC(=O)OC(C)(C)C)C(C)C)[nH]4)cc3)cc2)c[nH]1)C(C)C` [6bc], for which the EC50 was 1000 to 49900 pM. Turning to `COC(=O)N[C@H](C(=O)N1CC=C[C@H]1c1nc(-c2ccc(-c3ccc(-c4cnc([C@@H]5C=CCN5C(=O)[C@@H](NC(=O)OC)C(C)C)[nH]4)cc3)cc2)c[nH]1)C(C)C` [6bd], the EC50 was 1 to 999 pM. In the case of `CC(C)[C@H](NC(=O)OC(C)(C)C)C(=O)N1CC=C[C@H]1c1nc(-c2ccc(-c3ccc(-c4cnc([C@@H]5C=CCN5C(=O)[C@@H](NC(=O)OC(C)(C)C)C(C)C)[nH]4)cc3)cc2)c[nH]1` [6be] it was 1 to 999 pM; in that of `CC(C)[C@H](NC(=O)OC1CCCC1)C(=O)N1CC=C[C@H]1c1nc(-c2ccc(-c3ccc(-c4cnc([C@@H]5C=CCN5C(=O)[C@@H](NC(=O)OC5CCCC5)C(C)C)[nH]4)cc3)cc2)c[nH]1` [6bf], more than 50000 pM; in that of `CC(C)[C@H](NC(=O)OC1CCCC1)C(=O)N1CC=C[C@H]1c1ncc(-c2ccc(-c3ccc(-c4c[nH]c([C@@H]5CCCN5C(=O)[C@@H](NC(=O)OC5CCCC5)C(C)C)n4)cc3)cc2)[nH]1` [6bg], more than 50000 pM. The value for `COC(=O)N[C@H](C(=O)N1CC=C[C@H]1c1nc(-c2ccc(-c3ccc(-c4c[nH]c([C@@H]5CCCN5C(=O)C5(NC(=O)OC)CC5)n4)cc3)cc2)c[nH]1)C(C)C` [6bh] was 1 to 999 pM; that for `COC(=O)N[C@H](C(=O)N1CC=C[C@H]1c1nc(-c2ccc(-c3ccc(-c4c[nH]c([C@@H]5CCCN5C(=O)C5(NC(=O)OC)CCCCC5)n4)cc3)cc2)c[nH]1)C(C)C` [6bj] was 1 to 999 pM. The value for `COC(=O)N[C@H](C(=O)N1CC=C[C@H]1c1nc(-c2ccc(-c3ccc(-c4c[nH]c([C@@H]5COCCN5C(=O)[C@@H](NC(=O)OC)C(C)C)n4)cc3)cc2)c[nH]1)C(C)C` [6bm] was 1 to 999 pM; that for `COC(=O)N[C@H](C(=O)N1CCC[C@H]1c1ncc(-c2ccc(-c3cc4sc(-c5cnc([C@@H]6CN(C(=O)N7Cc8cc9c(cc8C7)OCO9)CN6C(=O)[C@@H](NC(=O)OC)C(C)C)[nH]5)cc4s3)cc2)[nH]1)C(C)C` [6bv] was 1 to 999 pM; that for `COC(=O)NC(C(=O)N1CCC[C@H]1c1ncc(-c2cc3sc(-c4ccc(-c5cnc([C@@H]6CN(C(=O)N7Cc8cc9c(cc8C7)OCO9)CN6C(=O)[C@@H](NC(=O)OC)C(C)C)[nH]5)cc4)cc3s2)[nH]1)c1ccccc1` (stereo partly shown) [6bw] was 1 to 999 pM.

As to `COC(=O)NC(C(=O)N1CC=C[C@H]1c1ncc(-c2ccc(-c3ccc(-c4cnc([C@@H]5CCCN5C(=O)[C@@H](NC(=O)OC)C(C)C)[nH]4)cc3)cc2)[nH]1)c1ccccc1` (stereo partly shown) [6bx], the half-maximal effective concentration (EC50) lay within 1 to 999 pM. In the case of `COC(=O)NC(C(=O)N1CCC[C@H]1c1nc(-c2ccc(-c3ccc(-c4c[nH]c([C@@H]5C=CCN5C(=O)[C@@H](NC(=O)OC)C(C)C)n4)cc3)cc2)c[nH]1)c1ccccc1` (stereo partly shown) [6by], the EC50 lay within 1 to 999 pM.

Turning to `COC(=O)NC(C(=O)N1CC=C[C@H]1c1ncc(-c2ccc(-c3ccc(-c4cnc([C@@H]5CCCN5C(=O)C(NC(=O)OC)c5ccccc5)[nH]4)cc3)cc2)[nH]1)c1ccccc1` (stereo partly shown) [6bz], the EC50 lay in the range of 1 to 999 pM. On to `COC(=O)NC(C(=O)N1CC=C[C@H]1c1ncc(-c2ccc(-c3ccc(-c4cnc([C@@H]5C=CCN5C(=O)C(NC(=O)OC)c5ccccc5)[nH]4)cc3)cc2)[nH]1)c1ccccc1` (stereo partly shown) [6ca], for which the EC50 lay within 1 to 999 pM. Take `COC(=O)NC(C(=O)N1CC=C[C@H]1c1ncc(-c2ccc(-c3cc4sc(-c5cnc([C@@H]6CCCN6C(=O)[C@@H](NC(=O)OC)C(C)C)[nH]5)cc4s3)cc2)[nH]1)c1ccccc1` (stereo partly shown) [6cb]: the EC50 was more than 50000 pM. Regarding `COC(=O)NC(C(=O)N1CC=C[C@H]1c1nc(-c2ccc(-c3cc4sc(-c5c[nH]c([C@@H]6CCCN6C(=O)C(NC(=O)OC)c6ccccc6)n5)cc4s3)cc2)c[nH]1)c1ccccc1` (stereo partly shown) [6cc], the EC50 is more than 50000 pM.

With `COC(=O)NC(C(=O)N1CC=C[C@H]1c1nc(-c2ccc(-c3cc4sc(-c5c[nH]c([C@@H]6C=CCN6C(=O)C(NC(=O)OC)c6ccccc6)n5)cc4s3)cc2)c[nH]1)c1ccccc1` (stereo partly shown) [6cd], the EC50 is more than 50000 pM.

In the case of `CN(C)C(=O)NC(C(=O)N1CC=C[C@H]1c1ncc(-c2ccc(-c3ccc(-c4cnc([C@@H]5CCCN5C(=O)C(NC(=O)N(C)C)c5ccccc5)[nH]4)cc3)cc2)[nH]1)c1ccccc1` (stereo partly shown) [6ce], the EC50 was 1 to 999 pM. As to `CNC(=O)NC(C(=O)N1CC=C[C@H]1c1ncc(-c2ccc(-c3ccc(-c4cnc([C@@H]5CCCN5C(=O)C(NC(=O)NC)c5ccccc5)[nH]4)cc3)cc2)[nH]1)c1ccccc1` (stereo partly shown) [6cf], the EC50 is 1 to 999 pM. The value for `CC(C)[C@H](NC(=O)N(C)C)C(=O)N1CC=C[C@H]1c1ncc(-c2ccc(-c3ccc(-c4cnc([C@@H]5CCCN5C(=O)[C@@H](NC(=O)N(C)C)C(C)C)[nH]4)cc3)cc2)[nH]1` [6cg] was 1 to 999 pM; that for `CNC(=O)N[C@H](C(=O)N1CC=C[C@H]1c1ncc(-c2ccc(-c3ccc(-c4cnc([C@@H]5CCCN5C(=O)[C@@H](NC(=O)NC)C(C)C)[nH]4)cc3)cc2)[nH]1)C(C)C` [6ch] was 1 to 999 pM; that for `COC(=O)N[C@H](C(=O)N1CCC[C@H]1c1ncc(-c2ccc(-c3ccc(-c4cnc([C@@H]5C=CCN5C(=O)[C@@H](NC(=O)N(C)C)C(C)C)[nH]4)cc3)cc2)[nH]1)C(C)C` [6ci] was 1 to 999 pM. Turning to `CNC(=O)N[C@H](C(=O)N1CC=C[C@H]1c1ncc(-c2ccc(-c3ccc(-c4cnc([C@@H]5CCCN5C(=O)[C@@H](NC(=O)OC)C(C)C)[nH]4)cc3)cc2)[nH]1)C(C)C` [6cj], the 50% effective concentration (EC50) was 1 to 999 pM. For `COC(=O)N[C@H](C(=O)N1CCC[C@H]1c1ncc(-c2ccc(-c3ccc(-c4cnc([C@@H]5CNCN5C(=O)[C@@H](NC(=O)OC)C(C)C)[nH]4)cc3)cc2)[nH]1)C(C)C` [6cu], the EC50 lay within 1 to 999 pM. In the case of `COC(=O)N[C@H](C(=O)N1CC=C[C@H]1c1ncc(-c2ccc(-c3ccc(-c4cnc([C@@H]5CN(C(=O)OC(C)(C)C)CN5C(=O)[C@@H](NC(=O)OC)C(C)C)[nH]4)cc3)cc2)[nH]1)C(C)C` [6cw], the 50% effective concentration (EC50) was 1 to 999 pM. Take `COC(=O)N[C@H](C(=O)N1CC=C[C@H]1c1ncc(-c2ccc(-c3ccc(-c4cnc([C@@H]5CN(S(C)(=O)=O)CN5C(=O)[C@@H](NC(=O)OC)C(C)C)[nH]4)cc3)cc2)[nH]1)C(C)C` [6cz]: the EC50 lay in the range of 1 to 999 pM.

`COC(=O)N[C@H](C(=O)N1CC=C[C@H]1c1ncc(-c2ccc(-c3ccc(-c4cnc([C@@H]5CN(C(=O)OC(C)C)CN5C(=O)[C@@H](NC(=O)OC)C(C)C)[nH]4)cc3)cc2)[nH]1)C(C)C` [6dc]: the EC50 fell in the range of 1 to 999 pM.

As for `COC(=O)N[C@H](C(=O)N1CC=C[C@H]1c1ncc(-c2ccc(-c3ccc(-c4cnc([C@@H]5CN(S(=O)(=O)C(C)C)CN5C(=O)[C@@H](NC(=O)OC)C(C)C)[nH]4)cc3)cc2)[nH]1)C(C)C` [6dd], the EC50 lay in the range of 1 to 999 pM.

Turning to `COC(=O)N[C@H](C(=O)N1CC=C[C@H]1c1ncc(-c2ccc(-c3ccc(-c4cnc([C@@H]5CCCN5C(=O)[C@@H](NC(=O)N(C)C)C(C)C)[nH]4)cc3)cc2)[nH]1)C(C)C` [6df], the EC50 lay in the range of 1 to 999 pM.
